Each structure is given as a SMILES string. Calls of active or inactive are those of the source.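 Rule for the calls: active = fitted curve reaching 40% activation at or below the top valid dose tested; inconclusive = flat curve at 30 to 70% activation, or poor fit; inactive = the rest.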 A value given as a limit tells only on which side of the number the result lay.

The source of these data is PubChem BioAssay AID540258 (Broad Institute, 2011).

For the assay, the system named is SK-MEL-5 TRPM1 promoter luciferase reporter, 24 h. In words: MITF activators via TRPM1 promoter reporter, dose response, SK-MEL-5 cells, luciferase, cherry-pick samples (AID 540258).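 Note: potency for activators that raise TRPM1 promoter luciferase signal.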
Take `Cc1ccc(-c2csc(C(C#N)=C3CCCC3)n2)cc1`: the AC40 is 2840 nM.
With `O=C(Nc1ccc(O)cc1)c1c(O)c2c([nH]c1=O)CCCC2`, the AC40 is 664 nM.
As for `COc1ccc(C(=O)NN/C(=N/S(=O)(=O)c2ccc(C)cc2)c2ccccc2)cc1`, the AC40 is 1480 nM.
The result for `Cc1noc(N)c1C(=O)Nc1ccc(C(C)(C)C)cc1` reads 1660 nM; that for `Cn1c(SCc2c(F)cccc2Cl)nnc1-c1cnccn1`, 6160 nM.
The result for `Cc1nc2c3cnn(-c4ccc(C)c(C)c4)c3ncn2n1` reads 921 nM; that for `CC(C)(C)C(=O)c1sc(Nc2ccccc2)nc1N`, 1680 nM; that for `O=C(CC1CCCC1)Nc1ccc(Br)cc1`, 11600 nM.
Consider `Cc1nc(C(=O)Nc2ccccc2)sc1C(=O)Nc1ccccc1`, for which the AC40 was 3890 nM.
The value for `COc1cc(O)c2c(=O)cc(-c3ccccc3)oc2c1` was 14200 nM.
As for `CC1CCc2nc(NC(=O)Cc3cccs3)sc2C1` (stereo not drawn), the AC40 is 2630 nM.
Consider `Cc1ccc(OCc2cc(C(=O)N3CC4C[C@@H]5CC3C[C@H](C4)C5)no2)cc1C`, for which the AC40 is 2610 nM.
Regarding `Cc1ccc(C(=O)NCCc2ccc(F)cc2)s1`, the AC40 was 245 nM.
In the case of `COc1ccccc1N1CCN(C2=Nc3cccc4cccc2c34)CC1`, the AC40 is 3000 nM.
The value for `Cc1ccc(NC(=O)N2CCc3ccccc3C2)cc1C` was 4470 nM; that for `Cc1cccc(-c2nnc3sc(-c4ccccc4)nn23)c1` was 12200 nM; that for `COc1ccc(-c2cc3nc4ccccc4n3c(N)c2C#N)cc1` was 1830 nM.
The value for `Cc1ccccc1-c1nc(Cc2ccccc2)no1` was 2780 nM; that for `CN(C(=O)c1cc2sccc2n1C)C1CCCCC1` was > 35000 nM (inactive); that for `FC(F)Oc1ccc(N=C2SCC3CCCCN23)cc1` (stereo not drawn) was 2530 nM.
For the compound `Brc1ccccc1-n1nnc(-c2nccs2)n1`, the AC40 was 2520 nM.
The result for `O=C(NOCc1ccccc1)OCc1ccccc1` reads 6910 nM.
The result for `CC(C)Nc1cc(C(C)(C)C)nc2c(-c3ccccc3)cnn12` reads 8530 nM.
The result for `COc1ccccc1-c1cnn2c(NC3CCCC3)cc(C)nc12` reads 4090 nM; that for `C/C(=N\Nc1ccccn1)c1ccc(C(C)C)cc1`, 4340 nM.
For the compound `Cc1nc2cc3nc(C)sc3cc2s1`, the AC40 was 7830 nM.
The value for `COc1cc(OC)c2c(-c3cccc(/C=C/c4ccc(F)cc4)c3)cc(=O)oc2c1` was 6950 nM; that for `COc1ccccc1Nc1nc(C)cs1` was 22600 nM; that for `CC(=O)N1N=C(c2ccc(C)cc2)OC1c1ccc(Br)cc1` (stereo not drawn) was 2830 nM.
The result for `O=C(NCCc1ccccc1)c1nccc2ccccc12` reads 19200 nM.
The result for `COC(=O)c1c(-c2ccc(S(C)(=O)=O)cc2)sc2ccc(OC)cc12` reads 2760 nM; that for `Nc1ccc(O)c2c(=O)cc(-c3ccccc3Cl)oc12`, 1130 nM.
Regarding `Cc1nc2ccc(NC(=O)Cc3c(F)cccc3Cl)cc2s1`, the AC40 is 3660 nM.
The value for `C/C(=C\c1ccc(N)cc1)c1nc2ccccc2[nH]1` was 1720 nM; that for `CCCN(Cc1ccc(C)cc1)C(=O)c1ccc(CNS(=O)(=O)c2ccc(C(C)=O)cc2)cc1` was > 35000 nM (inactive); that for `CN1CCSc2ccc(C(=O)Nc3cc(F)ccc3F)cc21` was 465 nM.
The value for `c1ccc(-c2noc(COc3ccc4c(c3)OCO4)n2)cc1` was 2250 nM.
The result for `COc1ccc(-c2nnc(-c3ccc4ccccc4c3)o2)cc1` reads 4300 nM; that for `CC(NC(=O)c1cc(COc2ccccc2)on1)c1nccs1` (stereo not drawn), 721 nM; that for `Cc1ccc(Nc2ncnc3ccccc23)cc1`, 2230 nM.
For `O=C(N/N=C/c1ccc(Cl)cc1Cl)c1cccc(F)c1`, the AC40 is 1950 nM.
The value for `COc1ccc(C)c2sc(=NC(=O)c3ccc(C(C)=O)cc3)n(C)c12` was 119 nM; that for `CCCCn1cnc2sc(-c3ccccc3)cc2c1=O` was 812 nM.
The result for `COc1cccc(C2Nc3ccccc3C(=O)N2c2ccc(F)cc2)c1O` (stereo not drawn) reads 23800 nM; that for `COc1ccc2nc3ccccc3nc2c1`, 4110 nM; that for `CSc1ccc(-c2nnn(Cc3ccc(C)cc3)n2)cc1`, 5080 nM.
Consider `CC(C)(C)C(=O)OCc1nc(-c2ccc(F)cc2)cs1`, for which the AC40 was 11300 nM.
The value for `COc1ccc(-c2noc(-c3cccc(OC)c3OC)n2)cc1OC` was 1330 nM; that for `COc1ccc2c(c1)oc(=O)c1cc(OC)ccc12` was 3880 nM.
The value for `O=C(Nc1ccc(C(F)(F)F)cc1)c1ccccc1` was 3480 nM.
As to `Cc1ccc(NC(=O)C2C3/C=C\CCCCC32)cc1` (stereo not drawn), the AC40 is 4540 nM.
`Nc1ccc(N=Nc2ccccc2)c(N)n1`: the AC40 is 14700 nM.
The result for `O=C(N/N=C/c1ccccc1C(F)(F)F)c1ccc(O)cc1` reads 3440 nM; that for `Cc1ccc(C(=O)Cn2nnc3ccccc32)cc1C`, 858 nM.
In the case of `CCCC(=O)Nc1nc(-c2ccccc2)ns1`, the AC40 was 4230 nM.
The value for `COc1ccc(-c2csc(-n3cccn3)n2)cc1` was 1100 nM; that for `c1csc(-c2nc(N3CCCCC3)no2)c1` was 1440 nM; that for `CCCCN1C(=O)/C(=C2\SC(N3CCCCC3)=NC2=O)c2ccccc21` was 3230 nM.
As for `CC(C)C(=O)Nc1cccc(-c2cnc3ccccc3n2)c1`, the AC40 is 17300 nM.
The result for `O=C(Cn1c(/C=C/c2ccccc2)nc2ccccc21)Nc1ccc(F)cc1` reads 6450 nM.
The value for `O=C(N/C=C/c1ccccc1)c1ccccc1` was 551 nM.
The value for `COc1ccc2c(c1OC)C(=O)OC2Nc1nc(-c2cc3cc(Br)ccc3oc2=O)cs1` (stereo not drawn) was 915 nM; that for `Cc1cc(NC(=O)c2ccc(Cl)cc2)no1` was 2630 nM; that for `Cc1nc(N)sc1N=Nc1ccc(F)cc1` was 6620 nM.
Turning to `c1ccc(-c2nc(-c3nccc4ccccc34)oc2-c2ccccc2)cc1`, the AC40 is 3610 nM.
The result for `COc1ccc2cc(C(=O)NCCc3ccccc3)[nH]c2c1` reads 11600 nM.
The value for `O=C(NCc1ccccn1)Nc1ccc(Br)cc1Cl` was 14300 nM.
As for `CC1CCC(NC(=O)c2cc3ccccc3cc2O)CC1` (stereo not drawn), the AC40 is 2640 nM.
The result for `Cn1cccc1C(=O)N/N=C/c1c(Cl)cccc1Cl` reads 1470 nM; that for `Cc1ccc(C(=O)Nc2cccc(O)c2)cc1S(=O)(=O)N1CCCCCC1`, 8120 nM; that for `CSc1nc2ccc(NC(=O)c3cccs3)cc2s1`, 2160 nM.
The value for `COc1ccc2c(c1)CC/C2=N\OC(=O)c1ccccc1C` was 1270 nM.
Take `CC(C)c1ccc(NC(=O)c2snc3ccc(Cl)cc23)cc1`: the AC40 was 1110 nM.
The value for `C#CCSc1nnc(-c2ccc(O)cc2)o1` was 9520 nM; that for `CSCc1ccc(C(=O)Nc2cc(C)cc(C)c2)cc1` was 2810 nM; that for `CN1C(=O)NC(=O)C(C)(C2=CCCCC2)C1=O` (stereo not drawn) was > 35000 nM (inactive).
The value for `CCS(=O)(=O)Nc1ccc(C(=O)NCCSc2ccccc2)cc1` was 34600 nM.
The value for `COc1ccccc1C(=O)NCC(=O)Nc1ccc2c(c1)CCC2` was 2420 nM; that for `O=C(NC1CC1)c1sc2cc(Cl)ccc2c1Cl` was 4590 nM; that for `N#C/C(C(=O)N1CCCCC1)=C1\Nc2ccccc2S1` was 5020 nM.
As for `Cc1ccsc1CCNC(=O)C1CCC(=O)N(CCc2cccc(F)c2)C1` (stereo not drawn), the AC40 was 6830 nM.
Take `Cc1nn(-c2ccccn2)c2c1-c1nc(N)ncc1CC2`: the AC40 was 2380 nM.
The result for `CCCC(=O)c1ccc(N2CCCCCC2)c(F)c1` reads 3360 nM.
Turning to `CSc1ccccc1OCc1cc(C(=O)N[C@H]2CCCCNC2=O)no1`, the AC40 was 2220 nM.
For the compound `CN(c1ccc(O)cc1)c1nc(O)c(C2=c3ccccc3=NC2=O)s1`, the AC40 was 8060 nM.
The result for `CN(C(=O)c1cc(-c2ccccc2)on1)C1CCCCC1` reads 1120 nM; that for `Cc1ccc(C(=O)Nc2ncccc2S(=O)(=O)c2ccccc2)cc1`, 2940 nM; that for `Cc1ccccc1Nc1nc(N)nc(COC(=O)c2ccccc2)n1`, 7870 nM.
The result for `O=C(O)c1ccc(-c2nc(-c3ccc(Cl)cc3)cs2)cc1` reads 309 nM; that for `Fc1ccccc1COc1ccc(C(=S)N2CCCC2)cc1`, 4340 nM; that for `CN(C)S(=O)(=O)c1cccc(-c2nnc(-c3ccccc3)o2)c1`, 8860 nM.
On to `CC(C)c1ccc(CNc2ncc(Br)cn2)cc1`, for which the AC40 is 3760 nM.
With `C=CCSc1nncn1/N=C/c1ccc(OC)cc1`, the AC40 is 1410 nM.
On to `Cc1cccc(OCc2nc(-c3nonc3N)no2)c1C`, for which the AC40 is 3810 nM.
The value for `COc1ccc(COc2ccc3ccc(=O)oc3c2)cc1` was 1210 nM; that for `COc1ccc(-c2cc(=NCCC(=O)O)c3cc(C)ccc3o2)cc1` was 3330 nM.
The value for `N#Cc1ccc(NC(=O)c2cccs2)nc1` was 16800 nM; that for `CCCc1cc(C(=O)Nc2ccc(C(=O)OC)cc2)cs1` was 16200 nM; that for `O=C(Nc1ccccc1Cl)c1ccc2nccnc2c1` was 4210 nM.
The value for `Cc1ccc(-n2nnc3ccccc3c2=O)cc1C` was 2620 nM; that for `CS(=O)(=O)N1N=C(c2ccc(Br)cc2)CC1c1ccc2c(c1)OCO2` (stereo not drawn) was 2950 nM.
In the case of `O=C(O)c1ccc(N/N=C/c2cccc(C(F)(F)F)c2)cc1`, the AC40 is 488 nM.
The result for `Cc1ccc(NC(=O)Nc2ccc3c(c2)OCO3)c(OC(F)F)c1` reads 2140 nM; that for `COc1cccc(NC(=O)c2csc3c2CCCC3)c1`, 4800 nM; that for `NNC(=O)c1ccc2nc(-c3ccc(Br)cc3)cn2c1`, 11300 nM.
On to `Cc1ccc(CSc2ccc(-c3cccs3)nn2)cc1`, for which the AC40 is 2710 nM.
The result for `Clc1ccc(-c2nnc(CCc3ccccc3)o2)c(Cl)c1` reads 2550 nM.
The value for `CC(=O)c1ccc2c(c1)Cc1cc(C(C)=O)ccc1-2` was 1190 nM; that for `COC(=O)c1ccc(-c2ccc(Cl)cc2)nc1C` was 475 nM; that for `O=c1oc(-c2cccs2)nc2sc3c(c12)CCCCC3` was 6420 nM.
Regarding `Clc1ccc(SCc2cn3ccccc3n2)cc1`, the AC40 was 2690 nM.
As to `Clc1cnc(N/N=C/c2cccs2)c(Cl)c1`, the AC40 was 3620 nM.
The result for `O=C(c1cnn2ccccc12)N1CCc2ccccc21` reads 1280 nM.
